pIC50: −log10 of the molar value.

The target of the experiment is RBP4 (Homo sapiens, UniProt P02753). The following applies: read-out: RBP4 – SPA IC50.

Broadly, the pIC50 is the IC50 on a negative log10 scale, so that one unit is a factor of ten. Turning to `Cc1cc(-c2nnn[nH]2)nc(N2C[C@H]3C[C@@H](c4ccccc4C(F)(F)F)C[C@H]3C2)n1` [BPN-15585], the pIC50 was 8.12. To `O=C(c1nc2ncccn2n1)N1C[C@H]2C[C@@H](c3ccccc3OC(F)(F)F)C[C@H]2C1` [compound 93] belongs 7.39.
